Read-outs that look alike come from different tables or passages of the source.
Tests used:
[1] = target: T1, Cav3.1 (Homo sapiens, UniProt O43497); assay: Whole-cell patch clamp of T-type Cav3.1 channel expressed in HEK293 cells; assay type: cell-based; conditions: Table 2
T1 construct: expressed in transfected cells; host or cells: HEK-293, tetracycline inducible expression system (Invitrogen)
Procedure: (§1) Cav3.1, Cav3.2 or Cav3.3 channels were expressed in human embryonic kidney (HEK)-293 cells using a tetracycline inducible expression system (Invitrogen). Cells were maintained in 25 cm^2 tissue culture flasks at 37° C., 5% CO2, and 100% relative humidity in D-MEM/F12 (Dulbecco's Modified Eagle Medium/Nutrient Mixture F-12; Gibco) supplemented with fetal bovine serum (FBS, 10% v/v), sodium pyruvate (0.5 mM, Gibco), penicillin-streptomycin (100 U/mL, 100 μg/mL) and Geneticin® Selective antibiotic (G418; 0.5 mg/mL). Cells were detached from the flask base using a non-enzymatic cell dissociation solution (Cellstripper, Corning), removed and re-seeded on to poly-D-lysine coated glass coverslips in 35 mm dishes.
(§2) Whole-cell voltage clamp recordings were performed on rat or mouse DRG neurons within 2 days after acutely dissociation or cultured HEK293 cells expressing T-type channels (encoded by Cav3.1, Cav3.2 or Cav3.3 channels). All experiments were performed at room temperature (around 21° C.). Whole-cell currents were recorded using a MultiClamp 700B amplifier and analyzed offline with pCLAMP10.4 software (Molecular Devices, LLC, Sunnyvale Calif., USA). […] Since the sodium ions were absent in the external solution, tetrodoctoxin was not needed. Calcium currents were recorded at a holding potential of −100 mV and then depolarized to −30 mV for 100 ms to activate either Cav3.1, Cav3.2, or Cav3.3 expressed in HEK cells. An interpulse interval of 10 seconds allowed the channel recovery from inactivation, and achieved stable current recordings. To record sodium (Na^+) currents in DRG neurons, the external solution used the modified Krebs solution specified above. The internal solution was composed (in mM) of 120 CsF, 10 HEPES, 11 EGTA, 1 CaCl2, 1 MgCl2, 10 TEA-Cl, 4 MgATP and 0.3 MgGTP (pH 7.3-7.4 adjusted with CsOH). […] To record potassium currents in DRG neurons, the external solution used the modified Kreb's solution specified above. The internal solution was composed (in mM) of 65 KCl, 80 KF, 5 KOH, 10 EGTA, 2 MgATP (pH 7.3-7.4 adjusted with KOH). Recording electrodes were fabricated using a P-87 puller (Sutter Instrument Co., Novato, Calif., USA). The tip of resistance was 3-4 MQ in bath and the series resistance was less than 10 MΩ after whole cell configuration. All reagents were purchased from Sigma unless specified otherwise. Test compounds were usually applied via a rapid solution exchange system with 8 fine polyplastic tubings (100 μm, OD) glued in a holder in parallel and located closely to the recorded cells. The current responses were normalized to the control, percent inhibition was calculated and sigmoidal dose-response curves were generated using XLFit (IDBS, Surrey, UK) or Prism (GraphPad Software, La Jolla, Calif., US) to calculate IC50 values and Hill slopes using the following equation Y=Bottom+(Top−Bottom)/(1+10^((Log EC50−X)[…])).

[2] = target: T2, Cav3.3 (Homo sapiens, UniProt Q9P0X4); assay: Whole-cell patch clamp of T-type Cav3.3 channel expressed in HEK293 cells; assay type: cell-based; conditions: Table 2
T2 construct: expressed in transfected cells; host or cells: HEK-293, tetracycline inducible expression system (Invitrogen)
Procedure: as §1, §2

[3] = target: T3, hERG channel (Homo sapiens, UniProt Q12809); assay: hERG patch clamp in hERG-expressing CHO cells; assay type: cell-based
T3 construct: expressed in transfected cells; host or cells: CHO
T3 sequence (Q12809 whole entry): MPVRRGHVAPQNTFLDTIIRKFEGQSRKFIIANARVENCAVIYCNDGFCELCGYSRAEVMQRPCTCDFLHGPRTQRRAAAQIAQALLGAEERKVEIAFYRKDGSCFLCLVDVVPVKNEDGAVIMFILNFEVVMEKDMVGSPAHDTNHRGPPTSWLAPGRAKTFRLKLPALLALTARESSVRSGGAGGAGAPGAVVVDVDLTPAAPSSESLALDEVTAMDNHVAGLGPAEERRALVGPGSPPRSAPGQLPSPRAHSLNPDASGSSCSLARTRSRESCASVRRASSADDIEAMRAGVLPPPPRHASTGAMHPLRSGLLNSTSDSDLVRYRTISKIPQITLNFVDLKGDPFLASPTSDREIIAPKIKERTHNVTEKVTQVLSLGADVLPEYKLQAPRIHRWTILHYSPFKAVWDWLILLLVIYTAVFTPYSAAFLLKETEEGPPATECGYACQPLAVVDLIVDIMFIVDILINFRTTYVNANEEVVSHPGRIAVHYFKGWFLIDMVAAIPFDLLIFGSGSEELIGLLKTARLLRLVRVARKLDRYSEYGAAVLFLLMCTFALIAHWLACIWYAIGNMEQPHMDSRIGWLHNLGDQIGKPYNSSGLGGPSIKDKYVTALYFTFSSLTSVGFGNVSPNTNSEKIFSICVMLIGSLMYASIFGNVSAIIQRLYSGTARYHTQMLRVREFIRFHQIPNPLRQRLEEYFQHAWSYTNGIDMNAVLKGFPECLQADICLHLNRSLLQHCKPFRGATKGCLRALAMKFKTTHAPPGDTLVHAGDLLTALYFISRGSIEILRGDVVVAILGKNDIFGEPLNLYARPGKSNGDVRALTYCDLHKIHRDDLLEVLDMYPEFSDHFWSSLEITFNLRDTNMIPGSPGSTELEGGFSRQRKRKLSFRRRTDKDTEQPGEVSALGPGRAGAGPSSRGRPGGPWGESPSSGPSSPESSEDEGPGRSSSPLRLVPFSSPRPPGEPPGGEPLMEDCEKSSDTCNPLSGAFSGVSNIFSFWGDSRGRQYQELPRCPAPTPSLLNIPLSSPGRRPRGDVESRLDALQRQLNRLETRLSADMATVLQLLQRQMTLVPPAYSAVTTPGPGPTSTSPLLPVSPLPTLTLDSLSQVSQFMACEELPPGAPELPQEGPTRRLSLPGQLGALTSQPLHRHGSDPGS
Procedure: Sodium and potassium channels in the rodent DRG neurons were recorded and tested as described above. The human ether-a-go-go-related gene (hERG) encodes the rapidly activating potassium channel (IKr) contributing to the repolarization of the cardiac action potential. […] Therefore the representative example compounds in Table 2 were tested against the hERG channel.
Whole-cell patch clamp electrophysiology is employed to test compounds and a positive control compound. Extracellular Ringer's solution contains (in mM): NaCl (130), KCl (5), CaCl2 (1), Glucose (10), HEPES-Na (10) (pH 7.4 adjusted with HCl). Internal pipette solution contains (in mM): KF (120), CaCl2 (1), MgCl2 (1), KCl (10), EGTA (11), HEPES (10), KOH (11) (pH 7.2 adjusted with KOH). The hERG potassium currents are recorded under a holding potential of −80 mV and then depolarized to 40 mV for 2.5 seconds to activate the hERG channel. The peak tail currents are induced by a repolarizing pulse to −50 mV for 4 seconds. A 250 millisecond prepulse to −50 mV is applied for leak subtraction. This voltage-clamp pulse protocol is performed continuously during the experiment every 20 seconds allowing recovery from inactivation. For IC50 determination, each concentration is applied for 2 mins to reach a steady-state inhibitory level prior to the next higher concentrations tested. Each concentration is tested at 2-3 times (n=2-3).

[4] = system: PTZ-induced seizures in mice; assay: Pentylenetetrazol (PTZ)-induced seizures in mice; assay type: in vivo, mouse; conditions: for latency to seizures / fatality latency / fatality rate: 30 mg/kg I.P., PTZ 40 mg/kg I.P.; for fatality latency / fatality rate: 20 min cutoff; for PTZ-induced Fatality (%): 30 mg/kg I.P. 60 min before PTZ 40 mg/kg I.P., death within 20 min
Procedure: FIG. 10. […] Sixty minutes (min) prior to receiving PTZ (40 mg/kg, I.P.), each mouse was pretreated with either an Example compound, ML218, Z944 or vehicle (2% DMSO in 0.5% HPC). Fatality rate (%) of mice in each group that dies within the 20 minutes observation period—was calculated. Both fatality rate and latency (data not shown) to death were used to evaluate the Example compound's ability to prevent death resulting from PTZ-induced seizures. A cutoff of 20 minutes was set for observational and statistical analysis purposes.
It is well known that antiepileptics, e.g. carbamazepine, lamotrigine and gabapentin are used for the treatment of neuropathic pain (Xie et al., 1995, Caviedes and Herranz, 2001). T-channel overactivation is involved in the generation of seizure activity (Huguenard, 1998, Cribbs et al., 2000, Perez-Reyes et al., 2009, Perez-Reyes, 2010). […] Fatality latency and rate—the percentage (%) of mice in each treatment group that died within a 20 minute cutoff of the observational period, were recorded and calculated. Averaged fatality latency and rate of each treatment group was used to evaluate the Example compound's ability to either prevent or delay the onset of PTZ-induced seizures and death.

T1 sequence (O43497 whole entry): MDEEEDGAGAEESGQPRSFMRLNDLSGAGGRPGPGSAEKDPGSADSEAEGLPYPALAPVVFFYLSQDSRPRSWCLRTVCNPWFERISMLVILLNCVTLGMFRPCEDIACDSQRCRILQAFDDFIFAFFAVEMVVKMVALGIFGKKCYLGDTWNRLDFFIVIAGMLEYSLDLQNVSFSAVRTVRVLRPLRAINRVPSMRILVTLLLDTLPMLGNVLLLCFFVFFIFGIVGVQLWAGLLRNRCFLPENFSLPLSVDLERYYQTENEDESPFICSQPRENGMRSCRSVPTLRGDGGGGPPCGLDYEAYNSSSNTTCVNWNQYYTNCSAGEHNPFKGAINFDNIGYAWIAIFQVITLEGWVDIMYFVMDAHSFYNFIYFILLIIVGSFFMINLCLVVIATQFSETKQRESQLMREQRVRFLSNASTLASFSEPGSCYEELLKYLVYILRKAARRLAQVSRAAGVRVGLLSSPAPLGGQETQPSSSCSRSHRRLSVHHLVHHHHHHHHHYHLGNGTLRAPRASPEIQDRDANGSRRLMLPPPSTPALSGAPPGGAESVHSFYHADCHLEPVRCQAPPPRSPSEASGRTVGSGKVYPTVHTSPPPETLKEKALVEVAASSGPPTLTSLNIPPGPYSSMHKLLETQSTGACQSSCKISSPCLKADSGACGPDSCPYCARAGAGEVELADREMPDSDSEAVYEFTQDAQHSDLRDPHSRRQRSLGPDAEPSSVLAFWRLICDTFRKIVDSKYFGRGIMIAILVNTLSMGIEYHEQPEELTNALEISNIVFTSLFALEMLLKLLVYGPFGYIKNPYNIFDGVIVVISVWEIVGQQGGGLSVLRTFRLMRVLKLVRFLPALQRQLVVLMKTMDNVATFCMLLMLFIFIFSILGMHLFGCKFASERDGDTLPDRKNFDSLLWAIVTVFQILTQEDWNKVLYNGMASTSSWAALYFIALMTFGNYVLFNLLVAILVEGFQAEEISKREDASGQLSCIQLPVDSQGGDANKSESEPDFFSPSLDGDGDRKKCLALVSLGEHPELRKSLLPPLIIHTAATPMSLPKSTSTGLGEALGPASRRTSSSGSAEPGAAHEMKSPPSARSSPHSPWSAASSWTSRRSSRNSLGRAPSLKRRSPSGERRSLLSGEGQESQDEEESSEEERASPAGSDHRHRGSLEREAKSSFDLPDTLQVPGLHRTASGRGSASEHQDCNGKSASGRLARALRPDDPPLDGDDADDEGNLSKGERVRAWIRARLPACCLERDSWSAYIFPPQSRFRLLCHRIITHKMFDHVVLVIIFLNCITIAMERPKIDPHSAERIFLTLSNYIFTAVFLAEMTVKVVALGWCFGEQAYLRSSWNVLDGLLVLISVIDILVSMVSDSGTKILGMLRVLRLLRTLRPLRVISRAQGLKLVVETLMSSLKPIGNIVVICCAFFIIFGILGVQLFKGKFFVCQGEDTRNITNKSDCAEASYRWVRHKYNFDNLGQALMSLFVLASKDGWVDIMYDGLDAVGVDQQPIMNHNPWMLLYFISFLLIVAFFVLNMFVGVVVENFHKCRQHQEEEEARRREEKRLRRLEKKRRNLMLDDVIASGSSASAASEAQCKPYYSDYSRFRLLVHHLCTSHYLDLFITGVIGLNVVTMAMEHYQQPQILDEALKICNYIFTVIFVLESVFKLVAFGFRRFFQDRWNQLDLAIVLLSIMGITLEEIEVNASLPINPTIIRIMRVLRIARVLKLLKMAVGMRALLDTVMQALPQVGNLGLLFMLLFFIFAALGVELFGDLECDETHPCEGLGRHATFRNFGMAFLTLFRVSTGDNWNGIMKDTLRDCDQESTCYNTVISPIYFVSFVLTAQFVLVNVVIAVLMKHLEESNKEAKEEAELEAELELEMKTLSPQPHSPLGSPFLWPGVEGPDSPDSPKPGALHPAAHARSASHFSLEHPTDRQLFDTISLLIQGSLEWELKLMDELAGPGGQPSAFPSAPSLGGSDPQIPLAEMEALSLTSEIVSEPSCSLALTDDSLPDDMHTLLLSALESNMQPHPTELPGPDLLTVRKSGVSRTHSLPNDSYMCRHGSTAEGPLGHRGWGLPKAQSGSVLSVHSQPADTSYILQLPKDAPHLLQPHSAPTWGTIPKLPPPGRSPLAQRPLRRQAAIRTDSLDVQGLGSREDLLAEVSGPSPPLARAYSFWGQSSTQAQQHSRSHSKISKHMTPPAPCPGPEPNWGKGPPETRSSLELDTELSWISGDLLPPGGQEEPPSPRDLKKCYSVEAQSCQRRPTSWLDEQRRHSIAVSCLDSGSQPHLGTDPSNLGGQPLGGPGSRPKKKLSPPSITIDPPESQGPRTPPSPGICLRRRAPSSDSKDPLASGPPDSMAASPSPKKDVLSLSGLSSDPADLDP

`CC(C)(C)NC(=O)CN1CCC2(CC1)CC2C(=O)Nc1cc(F)cc(C(F)(F)F)c1` (centres unmarked) [Example 141, 6-(2-(tert-Butylamino)-2-oxoethyl)-N-(3-fluoro-5-(trifluoromethyl)phenyl)-6-azaspiro[2.5]octane-1-carboxamide] showed an IC50 [1] of 0.34 µM, an IC50 [2] of 0.23 µM and an IC50 ([3]; Table 2, read-out: hERG IC50) of 17.4 µM. For the same molecule, the latency to seizures [4] was “significantly prolonged latencies to seizures”, the fatality latency [4] was “prolonged fatality latencies” and the fatality rate [4] was “decreased the fatality rate”.
With `CC(C)(C)CCN1C[C@@H]2[C@@H](CNC(=O)c3cc(Cl)cc(Cl)c3)[C@@H]2C1` [ML218, 3,5-Dichloro-N-[[(1α,5α,6-exo,6α)-3-(3,3-dimethylbutyl)-3-azabicyclo[3.1.0]hex-6-yl]methyl]benzamide, reference compound] the IC50 [1] was 0.14 µM, the IC50 [2] was 0.27 µM and the IC50 ([3]; Table 2, read-out: hERG IC50) was 2.1 µM. For the same molecule, the “PTZ-induced Fatality (%)” value [4] was 50%, the latency to seizures [4] was “significantly prolonged latencies to seizures” and the fatality latency [4] was “prolonged fatality latencies”. The fatality rate [4] was “decreased the fatality rate”.
With `CC(C)(C)NC(=O)CN1CCC2(CC1)C[C@H]2C(=O)Nc1cc(C(F)(F)F)cc(C(F)(F)F)c1` (single isomer, unassigned) [Example 132, (R)—N-(3,5-Bis(trifluoromethyl)phenyl)-6-(2-(tert-butylamino)-2-oxoethyl)-6-azaspiro[2.5]octane-1-carboxamide or (S)—N-(3,5-Bis(trifluoromethyl)phenyl)-6-(2-(tert-butylamino)-2-oxoethyl)-6-azaspiro[2.5]octane-1-carboxamide] the IC50 [1] was 0.12 µM, the IC50 [2] was 7.61 µM and the “hERG (%) inh. at 1 μM” value ([3]; 1 μM, values in brackets) was “(9%)”. For the same molecule, the latency to seizures [4] was “significantly prolonged latencies to seizures”, the fatality latency [4] was “prolonged fatality latencies” and the fatality rate [4] was “decreased the fatality rate”.
Work on `CC(C)(C)NC(=O)CN1CCC2(CC1)CC2NC(=O)c1cc(F)cc(Cl)c1` (centres unmarked) [Example 17, N-(6-(2-(tert-Butylamino)-2-oxoethyl)-6-azaspiro[2.5]octan-1-yl)-3-chloro-5-fluorobenzamide] yielded an IC50 [1] of 0.29 µM, an IC50 [2] of 0.29 µM and an IC50 [3] of 10.7 µM. For the same molecule, the latency to seizures [4] was “significantly prolonged latencies to seizures”, the fatality latency [4] was “prolonged fatality latencies” and the fatality rate [4] was “decreased the fatality rate”.
`CC(C)(C)CCN1CCC2(CC1)C[C@H]2NC(=O)c1cc(C(F)(F)F)cc(C(F)(F)F)c1` (single isomer, unassigned) [Example 146, (R)—N-(6-(3,3-dimethylbutyl)-6-azaspiro[2.5]octan-1-yl)-3,5-bis(trifluoromethyl)benzamide or (S)—N-(6-(3,3-dimethylbutyl)-6-azaspiro[2.5]octan-1-yl)-3,5-bis(trifluoromethyl)benzamide] was tested, and the IC50 [1] was 0.12 µM, the IC50 [2] was 0.11 µM and the IC50 ([3]; Table 2, read-out: hERG IC50) was 1.2 µM. The latency to seizures [4] was “significantly prolonged latencies to seizures”, the fatality latency [4] was “prolonged fatality latencies” and the fatality rate [4] was “decreased the fatality rate”.
Molecule `CC(C)(C)NC(=O)CN1CCC2(CC1)C[C@H]2NC(=O)c1cc(Cl)cc(Cl)c1` (single isomer, unassigned) [Example 57, (R)—N-(6-(2-(tert-Butylamino)-2-oxoethyl)-6-azaspiro[2.5]octan-1-yl)-3,5-dichlorobenzamide or (S)—N-(6-(2-(tert-Butylamino)-2-oxoethyl)-6-azaspiro[2.5]octan-1-yl)-3,5-dichlorobenzamide] has an IC50 [1] of 0.13 µM, an IC50 [2] of 0.098 µM and an inhibition at 1 µM ([3]; human, CHO cells expressing hERG, pH 7.4, 1 μM, values in brackets, read-out: hERG (%) inh. at 1 μM) of 22%. For the same molecule, the latency to seizures [4] was “significantly prolonged latencies to seizures”, the fatality latency [4] was “prolonged fatality latencies” and the fatality rate [4] was “decreased the fatality rate”.
`CC(C)(C)CCN1CCC2(CC1)C[C@H]2NC(=O)c1cc(C(F)(F)F)ccc1Cl` (single isomer, unassigned) [Example 147, (R)-2-Chloro-N-(6-(3,3-dimethylbutyl)-6-azaspiro[2.5]octan-1-yl)-5-(trifluoromethyl)benzamide or (S)-2-Chloro-N-(6-(3,3-dimethylbutyl)-6-azaspiro[2.5]octan-1-yl)-5-(trifluoromethyl)benzamide] gave an IC50 [1] of 2.41 µM, an IC50 [2] of 1.58 µM and an IC50 ([3]; Table 2, read-out: hERG IC50) of 1.8 µM. The latency to seizures [4] was “significantly prolonged latencies to seizures”, the fatality latency [4] was “prolonged fatality latencies” and the fatality rate [4] was “decreased the fatality rate”.
In the case of `CC(C)(C)NC(=O)CN1CCC2(CC1)C[C@H]2NC(=O)C12CC3CC(CC(C3)C1)C2` (single isomer, unassigned) [Example 145, N—((R)-6-(2-(tert-butylamino)-2-oxoethyl)-6-azaspiro[2.5]octan-1-yl)adamantane-1-carboxamide or N—((S)-6-(2-(tert-butylamino)-2-oxoethyl)-6-azaspiro[2.5]octan-1-yl)adamantane-1-carboxamide], the IC50 [1] is reported as 0.07 µM, the IC50 [2] is reported as 0.31 µM and the IC50 ([3]; Table 2, read-out: hERG IC50) is reported as > 30 µM. For the same molecule, the latency to seizures [4] was “significantly prolonged latencies to seizures”, the fatality latency [4] was “prolonged fatality latencies” and the fatality rate [4] was “decreased the fatality rate”.
`CC(C)(C)NC(=O)CN1CCC2(CC1)CC2NC(=O)c1cc(F)cc(Cl)c1` (single isomer, unassigned) [Example 128, (S)—N-(6-(2-(tert-Butylamino)-2-oxoethyl)-6-azaspiro[2.5]octan-1-yl)-3-chloro-5-fluorobenzamide or (R)—N-(6-(2-(tert-Butylamino)-2-oxoethyl)-6-azaspiro[2.5]octan-1-yl)-3-chloro-5-fluorobenzamide] gave an IC50 [1] of 0.06 µM, an IC50 [2] of 0.75 µM and an IC50 [3] of 7 µM. The “PTZ-induced Fatality (%)” value [4] was 16.7%, the latency to seizures [4] was “significantly prolonged latencies to seizures” and the fatality latency [4] was “prolonged fatality latencies”. For the same molecule, the fatality rate [4] was “decreased the fatality rate”.

— patent US10562857B2 (AFASCI, Inc., priority 2015, dated 2020)
